According to patent publication US6906205B2, “Spiro and dispiro 1,2,4-trioxolane antimalarials” (Medicines for Malaria Venture MMV, priority 2002, dated 2005):
Converted amounts (≈) assume the structure as drawn.

What was measured:
[1] = system: ANKA strain of Plasmodium berghei; assay: single dose ED50/ED90/ED99 determinations in infected mice; type: in vivo; conditions: single dose po in SSV, mice, percent reduction in parasitemia on day three post-infection
Method: In the single dose ED50/ED90/ED99 determinations, Moro SPF or NMRI mice (group of three) infected with the ANKA strain of Plasmodium berghei were treated on day one post-infection. […] The SSV consists of 0.5% w/v CMC, 0.5% v/v benzyl alcohol, 0.4% v/v Tween 80, and 0.9% w/v sodium chloride in water. Antimalarial activity was measured by percent reduction in parasitemia on day three post-infection. The ED50/ED90 values were calculated by nonlinear fitting.

[2] = system: Schistosoma mansoni 21-day-old schistosomules; assay: effect on 21-day-old schistosomules in mice; type: in vivo; conditions: single 200 mg/kg per os, female mice
Method: All groups were killed 4 weeks after treatment and the liver and intestine were removed and separated. The liver and intestine were compressed and alive male and female worms could be seen and counted. The effect of the compounds was evaluated by mean total and female worm burden.

[3] = system: Schistosoma mansoni adult schistosomes (49-day-old); assay: effect on adult schistosomes (49-day-old) in mice; type: in vivo; conditions: single 400 mg/kg per os
Method: Mice were infected with 100 Schistosoma mansoni cercariae […]. Each group was treated per os with OZ compounds at single doses of 200, 400, and 600 mg/kg. […] All groups were killed 4 weeks after treatment and the liver and intestine were removed and separated. The liver and intestine were compressed and alive male and female worms could be seen and counted.

[4] = system: ANKA strain of P. berghei; assay: single dose STI in vivo screen in infected mice; set-up: species or system Plasmodium berghei; conditions: for Activity (%) po / Activity (%) sc / Activity (%) SSVpo: percent reduction in parasitemia day 3 post-infection, mice; for Activity (%) po / Survival (days) po: single 10 mg/kg po in 3% ethanol and 7% Tween 80; for Activity (%) sc / Survival (days) sc: single 10 mg/kg sc in 3% ethanol and 7% Tween 80; for Activity (%) SSVpo: single po dose in standard suspending vehicle (SSV); for Survival (days) po / Survival (days) sc / Survival (days) SSVpo: untreated control 5.6 ± 0.3; for Survival (days) SSVpo: single po dose in SSV
Method in brief: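 Groups of 3-5 Moro SPF or NMRI mice infected with the ANKA strain of P. berghei received a single dose of trioxolane on day one post-infection. The compound was given in 3% ethanol and 7% Tween 80 or in SSV (0.5% w/v CMC, 0.5% v/v benzyl alcohol, 0.4% v/v Tween 80, 0.9% w/v sodium chloride in water). Antimalarial activity was scored as percent reduction in parasitemia on day three and as survival time versus untreated controls. Survival to day 30 counted as cure.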

[5] = system: P. falciparum K1 strain (Thailand resistant to chloroquine); assay: semiautomated microdilution assay, [3H]-hypoxanthine incorporation, K1 strain; type: cell-based, Plasmodium falciparum; conditions: K1 strain, 72 h incubation
Method in brief: (§1)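 Asynchronous stock cultures → intraerythrocytic forms; semiautomated microdilution; IC50 by logit regression.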

[6] = system: P. falciparum NF54 strain (sensitive to standard antimalarials); assay: semiautomated microdilution assay, [3H]-hypoxanthine incorporation, NF54 strain; type: cell-based, Plasmodium falciparum; conditions: NF54 strain, 72 h incubation
Method in brief: as §1

Structure (SMILES)	ED90 [1] [mg/kg]	ED99 [1] [mg/kg]	Activity (%) po [4] [%]	Activity (%) sc [4] [%]	Activity (%) SSVpo [4] [%]	Survival (days) po [4] [days]	Survival (days) sc [4] [days]	Survival (days) SSVpo [4] [days]	IC50 (ng/ml) K1 [5]	ED50 [1] [mg/kg]	IC50 (ng/ml) NF54 [6]	other results
CC1(C)COC2(CCC3(CC2)OOC2(O3)C3CC4CC(C3)CC2C4)OC1 (stereo not drawn) [OZ11]	6.2	8.2	99.99	100	98	11.4	18	7.4				% reduction of schistosomule growth at day 21 after per os application of 200 mg/kg, FWR (%) [2]: 84%; % reduction of schistosomule growth at day 21 after per os application of 200 mg/kg, TWR (%) [2]: 85%; % reduction of adult worms growth at day 49 after per os application of 400 mg/kg, TWR (%) [3]: 16%; adult worms at day 49, per os 400 mg/kg, DEAD WORM (%) [3]: 4%
O=C(NO)[C@H]1CC[C@@]2(CC1)OOC1(O2)C2CC3CC(C2)CC1C3 (stereo partly drawn) [OZ127]	7.6	19	95	97	98	7.0	7.7	7.7	0.61 ng/mL (≈ 1.89 nM)	2.5	1.3 ng/mL (≈ 4.02 nM)	
c1ncn(C[C@H]2CC[C@]3(CC2)OOC2(O3)C3CC4CC(C3)CC2C4)n1 (stereo partly drawn) [OZ177]	3.7	5.8						12.7				IC50 ([5]; Plasmodium falciparum, read-out: IC50 (ng/ml) K1): 0.9 ng/mL (≈ 2.61 nM); IC50 ([6]; Plasmodium falciparum, read-out: IC50 (ng/ml) NF54): 1.7 ng/mL (≈ 4.92 nM)
c1cn(C[C@H]2CC[C@]3(CC2)OOC2(O3)C3CC4CC(C3)CC2C4)cn1 (stereo partly drawn) [OZ179]	3.3	6.6			99.78			10.3	1.3 ng/mL (≈ 3.77 nM)	1.4	1.1 ng/mL (≈ 3.19 nM)	Activity (%) po ([4]; 10 mg/kg): 99.91%; Activity (%) sc ([4]; 10 mg/kg): 99.91%; Survival (days) po ([4]; 10 mg/kg): 11.3 days; Survival (days) sc ([4]; 10 mg/kg): 11.3 days
c1cn(CC[C@H]2CC[C@]3(CC2)OOC2(O3)C3CC4CC(C3)CC2C4)cn1 (stereo partly drawn) [OZ219]	3.0	5.2	99.89	99.91	99.82	8.7	9.3	8.0	0.85 ng/mL (≈ 2.37 nM)	1.6	1.6 ng/mL (≈ 4.46 nM)	
CN1CCN(C(=O)C[C@H]2CC[C@]3(CC2)OOC2(O3)C3CC4CC(C3)CC2C4)CC1 (stereo partly drawn) [OZ227]	4.0	6.2	99.68	99.84	99.90	8.3	10.7	9.3	0.20/0.20 ng/ml	2.3	0.20/0.20 ng/ml	
c1ncn(C[C@H]2CC[C@]3(CC2)OOC2(O3)C3CC4CC(C3)CC2C4)n1 (stereo partly drawn) [OZ235]	7.1	11	99.92	97	99.97	8.7	8.0	9.0	1.0 ng/mL (≈ 2.89 nM)	4.0	2.0 ng/mL (≈ 5.79 nM)	
